Assay results taken from patent publication US10344026B2, “Compositions and methods of targeting mutant K-ras” (NANTBIO, INC., priority 2017, dated 2019).

Columns and labels:
Type in all cases: cell-based
[1] = system: phospho-ERK in Panc1 (G12D); experiment: In-Cell Western phospho-ERK, Panc1; details: Homo sapiens, PANC-1, 1 h; Panc1, one hour treatment; read-out: In-Cell Western Panc1 (G12D) Erk (P)
Procedure, shortened: (§1)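 EC50 values come from immunofluorescence quantitation of phosphorylated ERK or Akt in fixed cells exposed to compound for one hour at 0.5% DMSO. Maximal inhibition is defined by 1 uM BEZ235 for Akt and 1 uM MEK Inhibitor II for ERK.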

[2] = system: A375 (K-Ras wild type cell line); experiment: Viability assay (CellTiterBlue, 72 hr) A375; details: Homo sapiens, A-375, GI50, CellTiterBlue
Procedure, shortened: (§2)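 Fluorescence at Ex550/Em590, read 3 hr after CellTiterBlue addition, served as the viability signal following 72 hr compound treatment. Wells held 1000 cells, pre-incubated 18 hr at 37 °C, with 0.5% DMSO final. GI50 derived with DMSO as 100% and 100 uM tamoxifen as 0% viability.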

Panc10.05-G12D = experiment: Viability assay (CellTiterBlue, 72 hr) Panc10.05; details: Homo sapiens, Panc1005, GI50, CellTiterBlue, Panc10.05 K-Ras G12D, read-out: 72 hr Cell Viability Panc10.05 (G12D)
Procedure, shortened: as §2

Panc1-G12D = experiment: Viability assay (CellTiterBlue, 72 hr) Panc1; details: Homo sapiens, PANC-1, GI50, CellTiterBlue, Panc1 K-Ras G12D, read-out: 72 hr Cell Viability Panc1 (G12D)
Procedure, shortened: as §2

[3] = system: phospho-Akt in Panc1 (G12D); experiment: In-Cell Western phospho-Akt, Panc1; details: Homo sapiens, PANC-1, 1 h; Panc1, one hour treatment; read-out: In-Cell Western Panc1 (G12D) Akt (P)
Procedure, shortened: as §1

[4] = system: phospho-ERK in Panc10.05 (G12D); experiment: In-Cell Western phospho-ERK, Panc10.05; details: Homo sapiens, Panc1005, 1 h; Panc10.05, one hour treatment; read-out: In-Cell Western Panc10.05 (G12D) Erk (P)
Procedure, shortened: as §1

[5] = system: phospho-ERK in HCC827 (Wild-type); experiment: In-Cell Western phospho-ERK, HCC827; details: Homo sapiens, 1 h; HCC827, one hour treatment; read-out: In-Cell Western HCC827 (Wild-type) Erk (P)
Procedure, shortened: as §1

[6] = system: HCC827 (K-Ras wild type cell line); experiment: Viability assay (CellTiterBlue, 72 hr) HCC827; details: Homo sapiens, GI50, CellTiterBlue, HCC827 K-Ras wild-type
Procedure, shortened: as §2

[7] = system: phospho-ERK in A375 (Wild-type); experiment: In-Cell Western phospho-ERK, A375; details: Homo sapiens, A-375, 1 h; A375, one hour treatment; read-out: In-Cell Western A375 (Wild-type) Erk (P)
Procedure, shortened: as §1

[8] = system: phospho-Akt in HCC827 (Wild-type); experiment: In-Cell Western phospho-Akt, HCC827; details: Homo sapiens, 1 h; HCC827, one hour treatment; read-out: In-Cell Western HCC827 (Wild-type) Akt (P)
Procedure, shortened: as §1

wild type K-Ras = biological target: T1, wild type K-Ras (Homo sapiens, UniProt P01116); experiment: G-LISA Ras activation, 293H cells transfected with Ras wild-type, EGF stimulated; details: compound 1 hour, then 100 ng/ml EGF 2 minutes
T1 construct: expressed in transfected cells; host or cells: 293H cells
Procedure, shortened: (§3)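 293H cells transfected with 5 μg Ras wild-type or mutant plasmid (Lipofectamine 3000); next day treated with 3.125-25 μM compound for 1 h. Wild-type-transfected cells then stimulated with 100 ng/ml EGF for 2 min. Active Ras measured by G-LISA in ice-cold lysates.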

HCT116-G31D = experiment: Viability assay (CellTiterBlue, 72 hr) HCT116; details: Homo sapiens, HCT-116, GI50, CellTiterBlue, HCT116 K-Ras G13D, read-out: 72 hr Cell Viability HCT116 (G13D)
Procedure, shortened: as §2

[9] = system: U87-MG (K-Ras wild type cell line); experiment: Viability assay (CellTiterBlue, 72 hr) U87-MG; details: Homo sapiens, U-87 MG, GI50, CellTiterBlue, U87-MG K-Ras wild-type
Procedure, shortened: as §2

[10] = system: phospho-Akt in A375 (Wild-type); experiment: In-Cell Western phospho-Akt, A375; details: Homo sapiens, A-375, 1 h; A375, one hour treatment; read-out: In-Cell Western A375 (Wild-type) Akt (P)
Procedure, shortened: as §1

[11] = system: Ishikawa (K-Ras wild type cell line); experiment: Viability assay (CellTiterBlue, 72 hr) Ishikawa; details: Homo sapiens, GI50, CellTiterBlue, Ishikawa K-Ras wild-type
Procedure, shortened: as §2

K-Ras G12D = biological target: T2, K-Ras G12D (Homo sapiens, UniProt P01116, G12D); experiment: G-LISA Ras activation, 293H cells transfected with G12D mutant; details: compound 1 hour
T2 construct: expressed in transfected cells; host or cells: 293H cells
Procedure, shortened: as §3

[12] = system: phospho-Akt in Panc10.05 (G12D); experiment: In-Cell Western phospho-Akt, Panc10.05; details: Homo sapiens, Panc1005, 1 h; Panc10.05, one hour treatment; read-out: In-Cell Western Panc10.05 (G12D) Akt (P)
Procedure, shortened: as §1

T1 sequence (P01116 whole entry): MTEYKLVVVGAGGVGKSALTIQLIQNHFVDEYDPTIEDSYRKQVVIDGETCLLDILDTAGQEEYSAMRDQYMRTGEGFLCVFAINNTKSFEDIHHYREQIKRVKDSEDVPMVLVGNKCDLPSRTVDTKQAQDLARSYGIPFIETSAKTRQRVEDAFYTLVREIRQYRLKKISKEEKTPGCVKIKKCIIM
T2 sequence (P01116 whole entry G12D): as the sequence (P01116 whole entry) above, with G12D counted along it

COCCN1C(=O)CCc2cc(-c3csc(NC(=O)c4c(C)nn(C)c4C)n3)ccc21 [Compound 120, N-(4-(1-(2-methoxyethyl)-2-oxo-1,2,3,4-tetrahydroquinoinolin-6-yl)thiazol-2-yl)-1,3,5-trimethyl-1H-pyrazole-4-carboxamide]
EC50 [1]: 5 µM
IC50 [2]: 20 µM
IC50 (Panc10.05-G12D): 0.802 µM
IC50 (Panc1-G12D): 4 µM
EC50 [3]: 26 µM
EC50 [4]: 1.2 µM
EC50 [5]: 3 µM
IC50 [6]: 4 µM
EC50 [7]: 24 µM
EC50 [8]: > 25 µM
IC50 (wild type K-Ras): 11.9 µM
IC50 (HCT116-G31D): > 25 µM
IC50 [9]: 13 µM
EC50 [10]: > 25 µM
IC50 [11]: 10 µM
IC50 (K-Ras G12D): 3.4 µM
EC50 [12]: 5 µM

CCn1nc(C)c(C(=O)Nc2nc(-c3ccc4c(c3)CCC(=O)N4CCOC)cs2)c1C [Compound 119, 1-ethyl-N-(4-(1-(2-methoxyethyl)-2-oxo-1,2,3,4-tetrahydroquinolin-6-yl)thiazol-2-yl)-3,5-dimethyl-1H-pyrazole-4-carboxamide]
EC50 [1]: 3 µM
IC50 [2]: 8 µM
IC50 (Panc10.05-G12D): 0.71 µM
IC50 (Panc1-G12D): 2 µM
EC50 [3]: 19 µM
EC50 [4]: 0.759 µM
EC50 [5]: 1.1 µM
IC50 [6]: 2 µM
EC50 [7]: 8 µM
EC50 [8]: > 25 µM
IC50 (wild type K-Ras): 5.4 µM
IC50 (HCT116-G31D): 16 µM
IC50 [9]: 6 µM
EC50 [10]: 12 µM
IC50 [11]: 3 µM
IC50 (K-Ras G12D): 2.6 µM
EC50 [12]: 1.5 µM

Cc1nn(C(C)C)cc1C(=O)Nc1nc(-c2ccc3c(c2)CCC(=O)N3Cc2cccnc2)cs1 [Compound 116, 1-isopropyl-3-methyl-N-(4-(2-oxo-1-(pyridin-3-ylmethyl)-1,2,3,4-tetrahydroquinolin-6-yl)thiazol-2-yl)-1-pyrazole-4-carboxamide]
EC50 [1]: 3 µM
IC50 [2]: 12 µM
IC50 (Panc10.05-G12D): 1.2 µM
IC50 (Panc1-G12D): 3 µM
EC50 [3]: 22 µM
EC50 [4]: 0.745 µM
EC50 [5]: 3 µM
IC50 [6]: 4 µM
EC50 [7]: 12 µM
EC50 [8]: > 25 µM
IC50 (wild type K-Ras): 6.1 µM
IC50 (HCT116-G31D): > 25 µM
IC50 [9]: > 25 µM
EC50 [10]: > 25 µM
IC50 [11]: 21 µM
IC50 (K-Ras G12D): 2.5 µM
EC50 [12]: 2 µM

CCc1nc(C)c(C(=O)Nc2nc(-c3ccc4c(c3)CCC(=O)N4CCOC)cs2)o1 [Compound 110, 2-ethyl-N-(4-(1-(2-methoxyethyl)-2-oxo-1,2,3,4-tetrahydroquinolin-6-yl)thiazol-2-yl)-4-methyloxazole-5-carboxamide]
EC50 [1]: 3 µM
IC50 [2]: > 25 µM
IC50 (Panc10.05-G12D): 0.778 µM
IC50 (Panc1-G12D): 4 µM
EC50 [3]: 23 µM
EC50 [4]: 1.3 µM
EC50 [5]: 4 µM
IC50 [6]: 4 µM
EC50 [7]: 23 µM
EC50 [8]: > 25 µM
IC50 (wild type K-Ras): 6.8 µM
IC50 (HCT116-G31D): > 25 µM
IC50 [9]: 17 µM
EC50 [10]: > 25 µM
IC50 [11]: 10 µM
IC50 (K-Ras G12D): 3.9 µM
EC50 [12]: 3 µM

COCCN1C(=O)CCc2cc(-c3csc(NC(=O)c4c(C)nn(C(C)C)c4C)n3)ccc21 [Compound 118, 1-isopropyl-N-(4-(1-(2-methoxyethyl)-2-oxo-1,2,3,4-tetrahydroquinolin-6-yl)thiazol-2-yl)-3,5-dimethyl-1H-pyrazole-4-carboxamide]
EC50 [1]: 6 µM
IC50 [2]: 9 µM
IC50 (Panc10.05-G12D): 0.854 µM
IC50 (Panc1-G12D): 2 µM
EC50 [3]: 26 µM
EC50 [4]: 0.969 µM
EC50 [5]: 1.2 µM
IC50 [6]: 2 µM
EC50 [7]: 10 µM
EC50 [8]: > 25 µM
IC50 (HCT116-G31D): 18 µM
IC50 [9]: 8 µM
EC50 [10]: 23 µM
IC50 [11]: 4 µM
IC50 (K-Ras G12D): 4.3 µM
EC50 [12]: 2 µM
